Experimental data published in EP1311531B1, “STEROID DERIVED ANTIBIOTICS” (Brigham Young University, priority 2000, dated 2002).
In brackets after ≈: the same amount, converted by molar mass. Like-named read-outs stand apart in the source and are kept apart here.

Assays:
[1] = tested on: Escherichia coli ATCC 25922; test: Sensitization to erythromycin, novobiocin or rifampicin (permeabilization, FIC); conditions: for MBC: Escherichia coli, ATCC25922; for concentration required to lower the MIC of erythromycin from 60 µg/mL to 1 µg/mL: Table 5, E. coli (ATCC 25922), with erythromycin; for FIC / concentration required for bacterial growth inhibition: Table 13, with rifampicin (order of b151), Escherichia coli ATCC 25922
[2] = tested on: Klebsiella pneumonia ATCC 13883; test: as above; type: cell-based, Klebsiella pneumoniae
E. coli (ATCC 10798) = test: MIC and MBC measurement; type: cell-based, Escherichia coli
Experimental: (§1) General: Microorganisms. Reference strains were purchased from the American Type Culture Collection (Rockville, MD) or Bactrol disks from Difeo Laboratories (Detroit, MI). […] Bacterial strains were maintained on Mueller-Hinton agar plates, and Candida albicans was maintained on Sabouraud Dextrose agar plates.
(§2) Aliquots (20 mL) of the homogeneous solution were then poured in sterile plastic petri dishes (100 x 15 mm, Fisher Scientific). Solutions of compounds were made by dissolving the HCl salt of the respective compound into an appropriate amount of deionized and sterilized water followed by microfiltration.
(§3) Aliquots of 1 mL of the suspension were added to test tubes containing 1 mL TSB and incrementally varied concentrations of cholic acid derivatives and/or erythromycin or novobiocin. […] Additionally, an alliquot from each of the samples showing no measurable turbidity was subcultured on TSA plates (alliquots were diluted to provide fewer than 300 CFU). Colonies that grew on the subculture after overnight incubation were counted and the number of CFU/mL in the samples were calculated. The calculated values were compared to the number of CFU/mL in the original inoculum.

[3] = tested on: Enterococcus faeculis ATCC 29212; test: MIC and MBC measurement; type: cell-based, Enterococcus faecalis; conditions: ATCC29212
Experimental: as §1, §2, §3

[4] = Minimum hemolytic concentration (MHC); type: cell-based; conditions: Table 10
Experimental: Minimum inhibition concentrations (MIC) and minimum hemolytic concentrations (MHC) were measured as described in Li et al., Antimicrob. Agents. Chemother., 1999, 43, 1347. […]

[5] = tested on: Salmonella typhimurium ATCC 14028; test: Sensitization to erythromycin, novobiocin or rifampicin (permeabilization, FIC); type: cell-based
Experimental: (§4) FICs can be performed by checkerboard titrations of compounds in one dimension of a microtiter plate, and of antibiotics in the other dimension, for example. The FIC is calculated by looking at the impact of one antibiotic on the MIC of the other and vice versa. […] Preferably, an FIC of less than 0.5 is obtained for synergism. As used herein, FIC can be determined as follows: FIC = (MIC(compound in combination))/(MIC(compound alone)) + (MIC(antibiotic in combination))/(MIC(antibiotic alone)) [formula]
(§5) Aliquots of 1 mL of the suspension were added to test tubes containing 1 mL TSB and incrementally varied concentrations of cholic acid derivatives and/or erythromycin or novobiocin. In the sensitization experiments, erythromycin or novobiocin were added 15 minutes later than the cholic acid derivatives. The samples were subjected to stationary incubation at 37°C for 24 hours. Sample turbidity was determined by measuring absorption at 760 nm (HP 8453 UV-Visible Chemstation, Hewlett Packard). Additionally, an alliquot from each of the samples showing no measurable turbidity was subcultured on TSA plates (alliquots were diluted to provide fewer than 300 CFU). Colonies that grew on the subculture after overnight incubation were counted and the number of CFU/mL in the samples were calculated. The calculated values were compared to the number of CFU/mL in the original inoculum.
(§6) Concentrations of 0.5, 1.0 or 3.0 µg/mL of these antibiotics were used, and the concentrations of the cholic acid derivatives required to inhibit bacterial growth of Gram-negative strains were determined.

[6] = tested on: Pseudomonas aeruginosa ATCC 27853; test: as above; type: cell-based; conditions: for MBC: Pseudomonas aeruginosa; for MBC / concentration required to lower the MIC of erythromycin from 240 µg/mL to 5 µg/mL: Table 7, with erythromycin; for MBC / concentration required to lower the MIC of erythromycin from 240 µg/mL to 5 µg/mL / concentration required to lower the MIC of novobiocin from >500 µg/mL to 1 µg/mL: P. aureginosa (ATCC 27853); for concentration required to lower the MIC of novobiocin from >500 µg/mL to 1 µg/mL: Table 8, with novobiocin
Experimental: as §4, §5, §6

[7] = tested on: Escherichia coli ATCC 25922; conditions: ATCC25922
Experimental: FICs can be performed by checkerboard titrations of compounds in one dimension of a microtiter plate, and of antibiotics in the other dimension, for example. The FIC is calculated by looking at the impact of one antibiotic on the MIC of the other and vice versa. […] As used herein, FIC can be determined as follows: FIC = (MIC(compound in combination))/(MIC(compound alone)) + (MIC(antibiotic in combination))/(MIC(antibiotic alone)) [formula]

[8] = tested on: Klebsiella pneumonia ATCC 13883; test: MIC and MBC measurement; type: cell-based; conditions: Klebsiella pneumoniae, ATCC13883
Experimental: as §1, §2, §3

[9] = tested on: Streptococcus pyogenes ATCC 19615; test: MIC and MBC measurement; type: cell-based; conditions: ATCC19615, Table 10
Experimental: as §1, §2, §3

[10] = tested on: Candida albicans ATCC 90028; test: MIC and MBC measurement; type: cell-based; conditions: ATCC90028, Table 10
Experimental: as §1, §2, §3

[11] = tested on: Salmonella typhimurium ATCC 14028; test: MIC and MBC measurement; type: cell-based; conditions: Salmonella enterica
Experimental: as §1, §2, §3

[12] = tested on: Pseudomonas aeruginosa ATCC 27853; test: MIC and MBC measurement; type: cell-based
Experimental: as §1, §2, §3

[13] = Table 12, with novobiocin (order of b151), Klebsiella pneumonia ATCC 13883
[14] = Table 13, with rifampicin (order of b151), Klebsiella pneumonia ATCC 13883
[15] = Escherichia coli, ATCC10798, Table 1, E. coli (ATCC 10798), read-out: MBC
[16] = Escherichia coli, ATCC10798, Table 1, E. coli (ATCC 10798), read-out: MIC
[17] = Table 11, with erythromycin (order of b151)
[18] = Table 12, with novobiocin (order of b151)
[19] = Table 12, with novobiocin (order of b151), Pseudomonas aeruginosa ATCC 27853
[20] = Table 13, with rifampicin (order of b151), Pseudomonas aeruginosa ATCC 27853^b (footnote b not given)
[21] = ATCC27853, Table 6, P. aureginosa (ATCC 27853)
[22] = ATCC27853, Table 10, Pseudomonas aeruginosa ATCC 27853
[23] = Table 9, Escherichia coli (ATCC 10798)

Structure (SMILES)	FIC [1]	concentration required for bacterial growth inhibition [1] [µg/mL]	FIC ([2]; ATCC13883)	concentration required for bacterial growth inhibition ([2]; ATCC13883) [µg/mL]	concentration required for bacterial growth inhibition [2, 13] [µg/mL]	FIC [2, 14]	concentration required for bacterial growth inhibition [2, 14] [µg/mL]	MBC [3] [µg/mL]	MIC [3] [µg/mL]	MHC [4] [µg/mL]	FIC [5, 17]	concentration required for bacterial growth inhibition [5, 17] [µg/mL]	FIC [5, 18]	concentration required for bacterial growth inhibition [5, 18] [µg/mL]	FIC ([6]; ATCC27853)	concentration required for bacterial growth inhibition ([6]; ATCC27853) [µg/mL]	concentration required for bacterial growth inhibition [6, 19] [µg/mL]	FIC [6, 20]	concentration required for bacterial growth inhibition [7] [µg/mL]	MBC [8] [µg/mL]	further results
C[C@H](CCCN(C)Cc1ccccc1)[C@H]1CC[C@H]2[C@@H]3[C@H](OCCN)C[C@@H]4C[C@H](OCCN)CC[C@]4(C)[C@H]3C[C@H](OCCN)[C@]12C [Compound 1]	0.099	0.74	0.072	1.0	4.7	0.043	0.40	50 (≈ 79.7 µM)	4.9 (≈ 7.82 µM)	78	0.19	3.6	0.22	4.4	0.29	6.6	3.9	0.096	0.35	> 36	MBC [1]: 14 µg/mL; concentration required to lower the MIC of erythromycin from 60 µg/mL to 1 µg/mL [1]: 2 µg/mL; MBC (E. coli (ATCC 10798); [15]): 34 µg/mL (≈ 54.2 µM); MIC (E. coli (ATCC 10798); [16]): 20 µg/mL (≈ 31.9 µM); MBC ([6]; ATCC27853): 45 µg/mL; concentration required to lower the MIC of erythromycin from 240 µg/mL to 5 µg/mL [6]: 8 µg/mL; concentration required to lower the MIC of novobiocin from >500 µg/mL to 1 µg/mL [6]: 6 µg/mL; MIC [8]: 24 µg/mL (≈ 38.3 µM); MBC [9]: 4.4 µg/mL (≈ 7.02 µM); MIC [9]: 3 µg/mL (≈ 4.78 µM); MBC [10]: > 50 µg/mL; MIC [10]: 49 µg/mL (≈ 78.2 µM); MBC [11]: > 25 µg/mL; MIC [11]: 21 µg/mL (≈ 33.5 µM); MBC [12, 21]: > 50 µg/mL; MIC [12, 21]: 15 µg/mL (≈ 23.9 µM); MBC [12, 22]: 38 µg/mL (≈ 60.6 µM); MIC [12, 22]: 26 µg/mL (≈ 41.5 µM)
C[C@H](CCCO)[C@H]1CC[C@H]2[C@@H]3[C@H](OCCCN)C[C@@H]4C[C@H](OCCCN)CC[C@]4(C)[C@H]3C[C@H](OCCCN)[C@]12C [Compound 10]	0.085	0.70	0.035	0.21	0.73	0.030	0.16	19 (≈ 33.6 µM)	3.3 (≈ 5.83 µM)	100	0.037	0.87	0.052	1.8	0.13	2.1	5.3	0.083	0.30	50 (≈ 88.4 µM)	MBC (E. coli (ATCC 10798); [15]): 60 µg/mL (≈ 106 µM); MIC (E. coli (ATCC 10798); [16]): 36 µg/mL (≈ 63.6 µM); MBC (E. coli (ATCC 10798); [23]): 60 µg/mL (≈ 106 µM); MIC (E. coli (ATCC 10798); [23]): 36 µg/mL (≈ 63.6 µM); concentration required to lower the MIC of erythromycin from 240 µg/mL to 5 µg/mL [6]: 7 µg/mL; MIC [8]: 47 µg/mL (≈ 83.1 µM); MBC [9]: 5.8 µg/mL (≈ 10.2 µM); MIC [9]: 4.2 µg/mL (≈ 7.42 µM); MBC [10]: 29 µg/mL (≈ 51.2 µM); MIC [10]: 14 µg/mL (≈ 24.7 µM); MBC [11]: > 17 µg/mL; MIC [11]: 43 µg/mL (≈ 76 µM); MIC [12, 21]: 23 µg/mL (≈ 40.6 µM); MBC [12, 22]: 36 µg/mL (≈ 63.6 µM); MIC [12, 22]: 21 µg/mL (≈ 37.1 µM)
C[C@H](CCCN(C)Cc1ccccc1)[C@H]1CC[C@H]2[C@@H]3[C@H](OCCCN)C[C@@H]4C[C@H](OCCCN)CC[C@]4(C)[C@H]3C[C@H](OCCCN)[C@]12C [Compound 2]	0.22	0.80	0.048	0.25	0.49	0.035	0.12	19 (≈ 28.4 µM)	3.4 (≈ 5.08 µM)	58	0.17	2.0	0.36	4.5	0.25	2.4	2.9	0.086	0.33	17 (≈ 25.4 µM)	MBC [1]: 5 µg/mL; concentration required to lower the MIC of erythromycin from 60 µg/mL to 1 µg/mL [1]: 1 µg/mL; MBC (E. coli (ATCC 10798); [15]): 16 µg/mL (≈ 23.9 µM); MIC (E. coli (ATCC 10798); [16]): 7 µg/mL (≈ 10.5 µM); MBC ([6]; ATCC27853): 25 µg/mL; concentration required to lower the MIC of erythromycin from 240 µg/mL to 5 µg/mL [6]: 4 µg/mL; concentration required to lower the MIC of novobiocin from >500 µg/mL to 1 µg/mL [6]: 4 µg/mL; MIC [8]: 14 µg/mL (≈ 20.9 µM); MBC [9]: 2.3 µg/mL (≈ 3.44 µM); MIC [9]: 2 µg/mL (≈ 2.99 µM); MBC [10]: 42 µg/mL (≈ 62.8 µM); MIC [10]: 30 µg/mL (≈ 44.8 µM); MBC [11]: 16 µg/mL (≈ 23.9 µM); MIC [11]: 13 µg/mL (≈ 19.4 µM); MBC [12, 21]: 40 µg/mL (≈ 59.8 µM); MIC [12, 21]: 9 µg/mL (≈ 13.5 µM); MBC [12, 22]: > 17 µg/mL; MIC [12, 22]: 11 µg/mL (≈ 16.4 µM)
CCCOCCC[C@@H](C)[C@H]1CC[C@H]2[C@@H]3[C@H](OCCCN)C[C@@H]4C[C@H](OCCCN)CC[C@]4(C)[C@H]3C[C@H](OCCCN)[C@]12C [Compound 112]	0.19	0.81	0.035	0.1	0.19	0.031	0.11	4.7 (≈ 7.73 µM)	3.1 (≈ 5.1 µM)	5.9	0.019	0.20	0.015	0.39	0.59	1.0	0.72	0.15	0.40	27 (≈ 44.4 µM)	MBC (E. coli (ATCC 10798); ATCC10798, Table 9, Escherichia coli (ATCC 10798), read-out: MBC): 17 µg/mL (≈ 28 µM); MIC (E. coli (ATCC 10798); ATCC10798, Table 9, Escherichia coli (ATCC 10798), read-out: MIC): 12 µg/mL (≈ 19.7 µM); MIC [8]: 23 µg/mL (≈ 37.8 µM); MBC [9]: 3 µg/mL (≈ 4.93 µM); MIC [9]: 2.4 µg/mL (≈ 3.95 µM); MBC [10]: 45 µg/mL (≈ 74 µM); MIC [10]: 41 µg/mL (≈ 67.4 µM); MBC [11]: 90 µg/mL (≈ 148 µM); MIC [11]: 86 µg/mL (≈ 141 µM); MBC [12, 22]: 6.4 µg/mL (≈ 10.5 µM); MIC [12, 22]: 4.6 µg/mL (≈ 7.57 µM)
